Laboratory results: US20250215039A1, “NUCLEOSIDES FOR TREATING CANCER” (PRIMEFOUR THERAPEUTICS, INC., priority 2022, published 2025)
Like-named read-outs stand apart in the source and are kept apart here.

Tested on: cancer cell lines
Test: Cancer cell proliferation activity (CellTiterGlo, 72 h)
Format: cell-based
Settings: 72 h, 72 h, read-out: IC50
How it was run: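 Readout is CellTiterGlo luminescence after 72 h compound exposure (0.1% DMSO final), started one day post-seeding, at 37 °C.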

IC50 (5637 cell line (bladder)): 4.05 µM
IC50 (AS49 cell line (lung)): > 50 µM
IC50 (CLS439 cell line (bladder)): > 50 µM
IC50 (HS729 cell line (muscle)): 12.3 µM
IC50 (JAR cell line (placenta)): 1.74 µM
IC50 (Homo sapiens, 22Rv1, 72 h, 22RV1 cell line (prostate)): > 50 µM
IC50 (Homo sapiens, 786-0, 72 h, 786O cell line (kidney)): 2.06 µM
IC50 (Homo sapiens, A204, 72 h, A204 cell line (muscle)): 3.33 µM
IC50 (Homo sapiens, A673, 72 h, A673 cell line (bone)): > 50 µM
IC50 (Homo sapiens, A2780, 72 h, A2780 cell line (ovary)): 4.62 µM
IC50 (Homo sapiens, A-375, 72 h, A375 cell line (skin)): 2.32 µM
IC50 (Homo sapiens, A-431, 72 h, A431 cell line (skin)): 2.32 µM
IC50 (Homo sapiens, ACHN, ACHN cell line (kidney)): > 50 µM
IC50 (Homo sapiens, ASPC1, 72 h, ASPC1 cell line (pancreas)): 2.3 µM
IC50 (Homo sapiens, BT-20, 72 h, BT20 cell line (breast)): 2.03 µM
IC50 (Homo sapiens, BXPC-3, 72 h, BXPC3 cell line (pancreas)): > 50 µM
IC50 (Homo sapiens, C-33-A, C33A cell line (cervical)): 4.21 µM
IC50 (Homo sapiens, CAKI-1, 72 h, CAKI1 cell line (kidney)): 0.32 µM
IC50 (Homo sapiens, COLO 205, 72 h, COLO205 cell line (colon)): > 50 µM
IC50 (Homo sapiens, COLO-678, 72 h, COLO678 cell line (colon)): > 50 µM
IC50 (Homo sapiens, Ca-Ski, CASKI cell line (cervical)): 1.69 µM
IC50 (Homo sapiens, Caco-2, 72 h, CACO2 cell line (colon)): 3.6 µM
IC50 (Homo sapiens, Calu-6, 72 h, CALU6 cell line (lung)): 4.12 µM
IC50 (Homo sapiens, DLD-1, 72 h, DLD1 cell line (colon)): > 50 µM
IC50 (Homo sapiens, DU-145, 72 h, DU145 cell line (prostate)): 1.47 µM
IC50 (Homo sapiens, EFO-21, 72 h, EFO21 cell line (ovary)): 3.32 µM
IC50 (Homo sapiens, EJ-28, 72 h, EJ28 cell line (bladder)): 3.49 µM
IC50 (Homo sapiens, Granta-519, 72 h, GRANTA-519 cell line (hematological)): 4.01 µM
IC50 (Homo sapiens, HCT-15, 72 h, HCT15 cell line (colon)): > 50 µM
IC50 (Homo sapiens, HCT-116, 72 h, HCT116 cell line (colon)): 2.89 µM
IC50 (Homo sapiens, HEK293, 72 h, HEK293 cell line (kidney)): 2.46 µM
IC50 (Homo sapiens, HL-60, 72 h, HL-60 cell line (hematological)): 3.85 µM
IC50 (Homo sapiens, HT-29, 72 h, HT29 cell line (colon)): 1.46 µM
IC50 (Homo sapiens, HT-1080, 72 h, HT1080 cell line (connective tissue)): > 50 µM
IC50 (Homo sapiens, HeLa, HELA cell line (cervical)): 4.53 µM
IC50 (Homo sapiens, HepG2, 72 h, HEPG2 cell line (liver)): 2.96 µM
IC50 (Homo sapiens, Hs-578T, HS578T cell line, breast): 6.12 µM
IC50 (Homo sapiens, IGROV-1, 72 h, IGROV1 cell line (ovary)): 2.03 µM
IC50 (Homo sapiens, IMR-90, 72 h, IMR90 cell line, lung): 4.24 µM
IC50 (Homo sapiens, J82, 72 h, J82 cell line (bladder)): 4.64 µM
IC50 (Homo sapiens, JEG-3, 72 h, JEG3 cell line (placenta)): 2.82 µM
IC50 (Homo sapiens, JIMT-1, 72 h, JIMT1 cell line (breast)): 1.23 µM
IC50 (Homo sapiens, K562, 72 h, K-562 cell line (hematological)): > 50 µM
IC50 (Homo sapiens, Kasumi 1, 72 h, KASUMI-1 cell line (hematological)): 2.16 µM
IC50 (Homo sapiens, L-363, 72 h, L-363 cell line (hematological)): 3.36 µM
IC50 (Homo sapiens, LoVo, LOVO cell line (colon)): 1.61 µM
IC50 (Homo sapiens, MCF7, 72 h, MCF7 cell line (breast)): > 50 µM
IC50 (Homo sapiens, MDA-MB-231, 72 h, MDAMB231 cell line (breast)): > 50 µM
IC50 (Homo sapiens, MDA-MB-435, 72 h, MDAMB435 cell line (skin)): > 50 µM
IC50 (Homo sapiens, MDA-MB-436, 72 h, MDAMB436 cell line (breast)): 3.22 µM
IC50 (Homo sapiens, MDA-MB-468, 72 h, MDAMB468 cell line (breast)): 4.45 µM
IC50 (Homo sapiens, MG-63, 72 h, MG63 cell line (bone)): > 50 µM
IC50 (Homo sapiens, MHH-ES-1, 72 h, MHHES1 cell line (bone)): 2.91 µM
IC50 (Homo sapiens, MIA PaCa-2, 72 h, MIAPACA2 cell line (pancreas)): > 50 µM
IC50 (Homo sapiens, MINO, MINO cell line (hematological)): 1.08 µM
IC50 (Homo sapiens, MV4-11, 72 h, MV4-11 cell line (hematological)): 0.63 µM
IC50 (Homo sapiens, NCI-H23, 72 h, NCI-H23 cell line (lung)): 3.29 µM
IC50 (Homo sapiens, NCI-H82, 72 h, NCIH82 cell line (lung)): 3.77 µM
IC50 (Homo sapiens, NCI-H292, 72 h, NCIH292 cell line (lung)): > 50 µM
IC50 (Homo sapiens, NCI-H460, 72 h, NCIH460 cell line (lung)): 3.37 µM
IC50 (Homo sapiens, OVCAR-3, 72 h, OVCAR3 cell line (ovary)): 2.05 µM
IC50 (Homo sapiens, OVCAR-4, 72 h, OVCAR4 cell line (ovary)): 3.52 µM
IC50 (Homo sapiens, PANC-1, 72 h, PANC1 cell line (pancreas)): > 50 µM
IC50 (Homo sapiens, PC-3, 72 h, PC3 cell line (prostate)): 5.77 µM
IC50 (Homo sapiens, PLC-PRF-5, 72 h, PLCPRF5 cell line (liver)): > 50 µM
IC50 (Homo sapiens, Panc1005, 72 h, PANC1005 cell line (pancreas)): 1.41 µM
IC50 (Homo sapiens, RD, RD cell line (muscle)): 6.72 µM
IC50 (Homo sapiens, Ramos, RAMOS cell line (hematological)): 2.44 µM
IC50 (Homo sapiens, SAOS-2, 72 h, SAOS2 cell line (bone)): 3.56 µM
IC50 (Homo sapiens, SF-268, 72 h, SF268 cell line (brain)): > 50 µM
IC50 (Homo sapiens, SF-295, 72 h, SF295 cell line (brain)): > 50 µM
IC50 (Homo sapiens, SK-BR-3, 72 h, SKBR3 cell line (breast)): 1.33 µM
IC50 (Homo sapiens, SK-HEP1, 72 h, SKHEP1 cell line (liver)): > 50 µM
IC50 (Homo sapiens, SK-LMS-1, 72 h, SKLMS1 cell line (uterus)): 2.29 µM
IC50 (Homo sapiens, SK-MEL-5, 72 h, SKMEL5 cell line, skin): > 50 µM
IC50 (Homo sapiens, SK-MEL-28, 72 h, SKMEL28 cell line (skin)): 9.02 µM
IC50 (Homo sapiens, SK-N-AS, SKNAS cell line (brain)): 6.83 µM
IC50 (Homo sapiens, SK-N-SH, SKNSH cell line (brain)): 2.91 µM
IC50 (Homo sapiens, SK-OV-3, 72 h, SKOV3 cell line (ovary)): 3.62 µM
IC50 (Homo sapiens, SNB-75, 72 h, SNB75 cell line (brain)): 14.9 µM
IC50 (Homo sapiens, SU-DHL10, 72 h, SU-DHL-10 cell line (hematological)): 2.62 µM
IC50 (Homo sapiens, SU-DHL-6, 72 h, SU-DHL-6 cell line (hematological)): 2.1 µM
IC50 (Homo sapiens, SW-620, 72 h, SW620 cell line (colon)): 3.12 µM
IC50 (Homo sapiens, T-24, 72 h, T24 cell line (bladder)): 6.26 µM
IC50 (Homo sapiens, TE-671, 72 h, TE671 cell line (muscle)): 12.6 µM
IC50 (Homo sapiens, THP-1, 72 h, THP-1 cell line (hematological)): 5.5 µM
IC50 (Homo sapiens, U2OS, U2OS cell line (bone)): > 50 µM
IC50 (Homo sapiens, U-87 MG, U87MG cell line (brain)): > 50 µM
IC50 (Homo sapiens, UMUC3, 72 h, UMUC3 cell line (bladder)): > 50 µM
IC50 (Homo sapiens, UO-31, 72 h, UO31 cell line (kidney)): 4.54 µM
IC50 (Homo sapiens, WSU-NHL, WSU-NHL cell line (hematological)): 4.87 µM
IC50 (MT-3, 72 h, MT3 cell line (breast)): 3.9 µM
IC50 (NCI-H358M, NCIH358M cell line (lung)): 2.63 µM
IC50 (PBMC, PBMC (hematological)): > 50 µM
IC50 (RD-ES, RDES cell line (bone)): 4.48 µM
Compound: Nc1nc(F)nc2c1ncn2[C@H]1C[C@H](O)[C@](CO)(CF)O1 [compound 150, (2R,3S,5R)-5-(6-amino-2-fluoro-9H-purin-9-yl)-2-(fluoromethyl)-2-(hydroxymethyl)tetrahydrofuran-3-ol]
